Assay results: ChEMBL document CHEMBL1201862, “PubChem BioAssay data set” (2004)
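Dose response: 5 concentrations. Exposure: 48 h. Format: 96-well plates. Endpoint: linear interpolation; highest concentration if not reached. Abbreviation: GI50, concentration required for 50% inhibition of growth.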 Active and inactive are the calls of the source. Cut-off read from the data, not from the text of the source: active = GI50 up to about 1.1 µM and inactive = higher.

How the values were obtained:
Experiment in all cases: DTP human tumour cell line panel, 48 h
DU-145 = test system: DU-145
M14 = test system: M14
MCF7 = test system: MCF7
DLD-1 = test system: DLD-1
HL-60 = test system: HL-60
NCI-H522 = test system: NCI-H522
UO-31 = test system: UO-31
NCI/ADR-RES = test system: NCI/ADR-RES
K562 = test system: K562
SR = test system: SR
MDA-N = test system: MDA-N
SF-268 = test system: SF-268
Hs-578T = test system: Hs-578T
EKVX = test system: EKVX
A498 = test system: A498
786-0 = test system: 786-0
UACC-257 = test system: UACC-257
U-251 = test system: U-251
MDA-MB-435 = test system: MDA-MB-435
HCC 2998 = test system: HCC 2998

Compound | GI50 (DU-145) | GI50 (M14) | GI50 (MCF7) | GI50 (DLD-1) | GI50 (HL-60) | GI50 (NCI-H522) | GI50 (UO-31) | GI50 (NCI/ADR-RES) | GI50 (K562) | GI50 (SR) | GI50 (MDA-N) | GI50 (SF-268) | GI50 (Hs-578T) | GI50 (EKVX) | GI50 (A498) | GI50 (786-0) | GI50 (UACC-257) | GI50 (U-251) | GI50 (MDA-MB-435) | GI50 (HCC 2998)
CCN(CC)CC[n+]1ccc2c(C)c3[nH]c4ccc(O)cc4c3c(C)c2c1 | 2.4 µM (inactive) | 10.7 µM (inactive) | 2 µM (inactive) | 11.6 µM (inactive) | 2.88 µM (inactive) | 1.96 µM (inactive) | 28 µM (inactive) | 14.6 µM (inactive) | 4.06 µM (inactive) | 0.0278 µM (active) | 8.89 µM (inactive) | 1.12 µM (active) | 0.552 µM (active) | 10.8 µM (inactive) | 16.2 µM (inactive) | 3.05 µM (inactive) | 19.6 µM (inactive) | 1.33 µM (inactive) | 9.42 µM (inactive) | 6.15 µM (inactive)
CCOC(=O)Nc1ccc2c(c1)N(C(=O)CCN(CC)CC)c1ccccc1S2 [ETHACIZINE] | 50.1 µM (inactive) | 22.9 µM (inactive) | 25.3 µM (inactive) | 29.1 µM (inactive) | 18.9 µM (inactive) | 65.8 µM (inactive) | 27.5 µM (inactive) | 45.2 µM (inactive) | 25.8 µM (inactive) | 17.5 µM (inactive) | – | 27.8 µM (inactive) | 50.4 µM (inactive) | > 35.9 µM (inactive) | 23.4 µM (inactive) | 24.4 µM (inactive) | 16.3 µM (inactive) | 26.6 µM (inactive) | 29 µM (inactive) | 17.3 µM (inactive)
COc1ccc(/C=C2\CCC(Cc3ccccc3)(CN(C)C)C2=O)cc1 (stereo not drawn) | > 70.8 µM (inactive) | 26.7 µM (inactive) | 41.8 µM (inactive) | 26.4 µM (inactive) | 19.7 µM (inactive) | 31.8 µM (inactive) | 54.3 µM (inactive) | 42.2 µM (inactive) | 26.4 µM (inactive) | 20.6 µM (inactive) | 38.3 µM (inactive) | 69.5 µM (inactive) | > 91.2 µM (inactive) | 42.5 µM (inactive) | 58.6 µM (inactive) | 41.7 µM (inactive) | 25.2 µM (inactive) | 61.7 µM (inactive) | 32.1 µM (inactive) | 24.4 µM (inactive)
CCCCNCC(=O)O[C@]1(CC)C(=O)OCc2c1cc1n(c2=O)Cc2cc3ccccc3nc2-1 | 0.0482 µM (active) | 0.231 µM (active) | 0.0998 µM (active) | 3.3 µM (inactive) | 0.084 µM (active) | 0.224 µM (active) | 0.207 µM (active) | 0.0789 µM (active) | 0.476 µM (active) | 0.0101 µM (active) | 2.11 µM (inactive) | 0.0851 µM (active) | 31.9 µM (inactive) | 2.98 µM (inactive) | 0.741 µM (active) | 0.0482 µM (active) | 0.646 µM (active) | 0.0508 µM (active) | 1.57 µM (inactive) | 1.74 µM (inactive)
CCCCCCCCC[C@@H]1CC(=O)OCC2OC(O[C@H](CCCCCCCCC)CC(=O)OCC3OC(O[C@H](CCCCCCCCC)CC(=O)OCC4OC(O1)C(O)C(O)C4O)C(O)C(O)C3O)C(O)C(O)C2O (stereo partly drawn) | – | 4.97 µM (inactive) | – | 14 µM (inactive) | 14.3 µM (inactive) | 8.73 µM (inactive) | 9.4 µM (inactive) | – | 3.47 µM (inactive) | 6.7 µM (inactive) | – | 2.94 µM (inactive) | – | 12 µM (inactive) | 14.5 µM (inactive) | 0.957 µM (active) | 10.8 µM (inactive) | 8.28 µM (inactive) | – | 12 µM (inactive)
